According to article doi:10.1101/2025.02.11.637513v1 (bioRxiv, 2025):
Non-standard residues stand in square brackets, D forms with d. No end group written: not given here. *: point of attachment. Phe(F5) = N[C@@H](Cc1c(F)c(F)c(F)c(F)c1F)C(=O)O; Bip = N[C@@H](Cc1ccc(-c2ccccc2)cc1)C(=O)O; Phe(4-Cl) = N[C@@H](Cc1ccc(Cl)cc1)C(=O)O; Phg = N[C@H](C(=O)O)c1ccccc1; Tle = CC(C)(C)[C@H](N)C(=O)O; Bn = c1ccc(C*)cc1

Columns and labels:
Assay in all cases: tetrapeptide-ACC substrate cleavage kinetics
Assay type in all cases: biochemical
human caspase-1 = target: T1, human caspase-1 (Homo sapiens, UniProt P29466); conditions: Ac-P4-P3-P2-Asp-ACC substrate, 0.05-500 μM, 2-15 nM enzyme, 37°C, triplicate
T1 sequence (P29466 120-297 limits assumed): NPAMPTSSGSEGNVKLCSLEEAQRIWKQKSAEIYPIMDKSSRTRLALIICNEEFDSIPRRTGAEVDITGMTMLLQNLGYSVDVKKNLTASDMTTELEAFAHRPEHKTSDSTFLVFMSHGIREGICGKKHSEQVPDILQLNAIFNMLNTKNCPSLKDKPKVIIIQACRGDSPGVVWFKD
T1 sequence (P29466 317-404 limits assumed): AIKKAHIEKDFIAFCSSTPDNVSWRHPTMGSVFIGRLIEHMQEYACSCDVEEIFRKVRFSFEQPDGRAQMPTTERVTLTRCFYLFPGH

human caspase-4 = target: T2, human caspase-4 (Homo sapiens, UniProt P49662); conditions: Ac-P4-P3-P2-Asp-ACC substrate, 0.05-500 μM, 35-200 nM enzyme, 37°C, triplicate
T2 sequence (P49662 81-270 limits assumed): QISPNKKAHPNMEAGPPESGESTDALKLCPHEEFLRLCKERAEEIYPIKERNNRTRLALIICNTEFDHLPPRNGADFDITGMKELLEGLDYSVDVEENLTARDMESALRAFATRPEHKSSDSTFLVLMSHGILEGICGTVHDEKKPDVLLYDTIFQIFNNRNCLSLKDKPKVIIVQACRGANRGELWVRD
T2 sequence (P49662 290-377 limits assumed): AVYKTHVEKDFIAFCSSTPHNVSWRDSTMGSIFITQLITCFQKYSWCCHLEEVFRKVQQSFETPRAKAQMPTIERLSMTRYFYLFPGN

human caspase-5 = target: T3, human caspase-5 (Homo sapiens, UniProt P51878); conditions: Ac-P4-P3-P2-Asp-ACC substrate, 0.05-500 μM, 20-250 nM enzyme, 37°C, triplicate
T3 sequence (P51878 137-327 limits assumed): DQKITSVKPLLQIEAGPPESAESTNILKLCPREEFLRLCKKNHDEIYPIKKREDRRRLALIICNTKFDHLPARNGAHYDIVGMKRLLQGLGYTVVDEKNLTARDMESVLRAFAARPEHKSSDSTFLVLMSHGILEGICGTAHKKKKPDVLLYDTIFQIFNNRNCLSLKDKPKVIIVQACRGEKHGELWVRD
T3 sequence (P51878 347-434 limits assumed): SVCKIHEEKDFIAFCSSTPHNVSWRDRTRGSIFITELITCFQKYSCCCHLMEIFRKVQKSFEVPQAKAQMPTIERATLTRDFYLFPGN

human caspase-3 = target: T4, human caspase-3 (Homo sapiens, UniProt P42574); conditions: Ac-P4-P3-P2-Asp-ACC substrate, 0.05-500 μM, 3-35 nM enzyme, 37°C, triplicate
T4 sequence (P42574 29-175 limits assumed): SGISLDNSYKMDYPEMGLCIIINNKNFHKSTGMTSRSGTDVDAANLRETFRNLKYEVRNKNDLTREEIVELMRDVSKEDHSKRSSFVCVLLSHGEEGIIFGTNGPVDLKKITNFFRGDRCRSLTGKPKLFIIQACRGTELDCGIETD
T4 sequence (P42574 176-277 limits assumed): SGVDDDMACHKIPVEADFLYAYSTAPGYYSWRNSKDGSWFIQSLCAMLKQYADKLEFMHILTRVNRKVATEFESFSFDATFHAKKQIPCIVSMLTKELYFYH

human caspase-7 = target: T5, human caspase-7 (Homo sapiens, UniProt P55210); conditions: Ac-P4-P3-P2-Asp-ACC substrate, 0.05-500 μM, 40-400 nM enzyme, 37°C, triplicate
T5 sequence (P55210 24-198 limits assumed): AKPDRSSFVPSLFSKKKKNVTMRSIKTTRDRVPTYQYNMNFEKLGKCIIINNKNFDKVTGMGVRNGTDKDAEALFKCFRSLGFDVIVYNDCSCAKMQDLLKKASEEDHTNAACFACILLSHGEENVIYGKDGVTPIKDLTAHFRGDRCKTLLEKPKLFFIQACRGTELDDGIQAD
T5 sequence (P55210 207-303 limits assumed): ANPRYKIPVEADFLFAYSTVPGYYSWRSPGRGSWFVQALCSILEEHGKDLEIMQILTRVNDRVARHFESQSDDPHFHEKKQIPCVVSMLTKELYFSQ

human caspase-8 = human caspase-8 (Homo sapiens, UniProt Q14790); conditions: Ac-P4-P3-P2-Asp-ACC substrate, 0.05-500 μM, 6-42 nM enzyme, 37°C, triplicate
human caspase-9 = target: T6, human caspase-9 (Homo sapiens, UniProt P55211); conditions: Ac-P4-P3-P2-Asp-ACC substrate, 0.05-500 μM, 20-150 nM enzyme, 37°C, triplicate
T6 sequence (P55211 1-315 limits assumed): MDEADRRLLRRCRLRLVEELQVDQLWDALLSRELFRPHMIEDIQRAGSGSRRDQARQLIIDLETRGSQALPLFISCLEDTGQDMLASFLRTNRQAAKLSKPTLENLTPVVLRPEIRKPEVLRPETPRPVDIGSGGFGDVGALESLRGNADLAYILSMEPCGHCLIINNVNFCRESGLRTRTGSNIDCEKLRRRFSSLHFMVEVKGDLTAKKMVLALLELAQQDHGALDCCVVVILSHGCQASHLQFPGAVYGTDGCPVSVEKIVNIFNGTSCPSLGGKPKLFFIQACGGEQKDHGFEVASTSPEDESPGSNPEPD
T6 sequence (P55211 331-416 limits assumed): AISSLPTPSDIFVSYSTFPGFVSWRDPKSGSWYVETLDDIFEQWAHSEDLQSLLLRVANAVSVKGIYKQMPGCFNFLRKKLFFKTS

Chain of human caspase-8 (Q14790 217-374 limits assumed): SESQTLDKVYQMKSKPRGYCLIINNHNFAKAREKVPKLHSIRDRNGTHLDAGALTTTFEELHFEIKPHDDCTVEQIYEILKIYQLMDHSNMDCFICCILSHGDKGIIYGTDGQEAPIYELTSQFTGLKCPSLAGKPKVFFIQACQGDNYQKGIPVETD
Chain of human caspase-8 (Q14790 385-479 limits assumed): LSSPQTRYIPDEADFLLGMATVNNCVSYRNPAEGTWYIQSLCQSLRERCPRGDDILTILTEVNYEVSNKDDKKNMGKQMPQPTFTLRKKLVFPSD

Substance	kcat/KM caspase-1 (human caspase-1)	kcat/KM caspase-4 (human caspase-4)	kcat/KM caspase-5 (human caspase-5)	kcat/KM caspase-3 (human caspase-3)	kcat/KM caspase-7 (human caspase-7)	kcat/KM caspase-8 (human caspase-8)	kcat/KM caspase-9 (human caspase-9)
Tyr-Tyr(2,6Cl2Bzl)-His-Asp	8 700 M^-1s^-1	< 10 M⁻¹ s⁻¹	1 560 M^-1s^-1	1 240 M^-1s^-1	50 M⁻¹ s⁻¹	1 050 M^-1s^-1	310 M⁻¹ s⁻¹
Trp-Gln-Val-Asp	124 800 M^-1s^-1	4 300 M^-1s^-1	5 100 M^-1s^-1	12 140 M^-1s^-1	100 M⁻¹ s⁻¹	3 870 M^-1s^-1	220 M⁻¹ s⁻¹
Phe-Glu-Ala-Asp	57 100 M^-1s^-1	870 M⁻¹ s⁻¹	6 720 M^-1s^-1	1 550 M^-1s^-1	180 M⁻¹ s⁻¹	3 890 M^-1s^-1	530 M⁻¹ s⁻¹
WT(Bn)HD	644 300 M^-1s^-1	6 010 M^-1s^-1	10 640 M^-1s^-1	2 760 M^-1s^-1	120 M⁻¹ s⁻¹	8 230 M^-1s^-1	11 220 M^-1s^-1
Trp(Me)-Glu-His(Bzl)-Asp	623 800 M^-1s^-1	15 800 M^-1s^-1	20 140 M^-1s^-1	6 300 M^-1s^-1	280 M⁻¹ s⁻¹	7 620 M^-1s^-1	6 670 M^-1s^-1
Tle-hGlu-Thr(Bzl)-Asp	12 400 M^-1s^-1	2 130 M^-1s^-1	5 750 M^-1s^-1	179 800 M^-1s^-1	17 430 M^-1s^-1	125 800 M^-1s^-1	7 820 M^-1s^-1
[Tle][Phe(4-Cl)]HD	13 300 M^-1s^-1	2 500 M^-1s^-1	7 360 M^-1s^-1	21 330 M^-1s^-1	160 M⁻¹ s⁻¹	10 600 M^-1s^-1	9 100 M^-1s^-1
Val-Trp-His-Asp	7 700 M^-1s^-1	1 010 M^-1s^-1	60 M⁻¹ s⁻¹	9 980 M^-1s^-1	210 M⁻¹ s⁻¹	3 500 M^-1s^-1	8 880 M^-1s^-1
Y[Phe(F5)]HD	161 900 M^-1s^-1	2 270 M^-1s^-1	14 900 M^-1s^-1	8 500 M^-1s^-1	210 M⁻¹ s⁻¹	3 150 M^-1s^-1	7 300 M^-1s^-1
Leu-Glu-His-Asp	97 500 M^-1s^-1	8 950 M^-1s^-1	21 500 M^-1s^-1	12 600 M^-1s^-1	730 M⁻¹ s⁻¹	186 000 M^-1s^-1	12 700 M^-1s^-1
[Tle][Bip]HD	10 900 M^-1s^-1	2 820 M^-1s^-1	5 280 M^-1s^-1	16 920 M^-1s^-1	160 M⁻¹ s⁻¹	11 700 M^-1s^-1	8 430 M^-1s^-1
VY(Bn)HD	7 300 M^-1s^-1	350 M⁻¹ s⁻¹	660 M⁻¹ s⁻¹	6 900 M^-1s^-1	180 M⁻¹ s⁻¹	2 610 M^-1s^-1	1 790 M^-1s^-1
Phe(2Cl)-Glu-Pip-Asp		9 760 M^-1s^-1	1 830 M^-1s^-1	103 000 M^-1s^-1	10 730 M^-1s^-1	11 430 M^-1s^-1	2 300 M^-1s^-1
Tyr-Val-His-Asp	140 500 M^-1s^-1	2 920 M^-1s^-1	9 640 M^-1s^-1	1 530 M^-1s^-1	150 M⁻¹ s⁻¹	2 550 M^-1s^-1	15 800 M^-1s^-1
[Tle]MHD	23 100 M^-1s^-1	2 020 M^-1s^-1	5 120 M^-1s^-1	20 740 M^-1s^-1	280 M⁻¹ s⁻¹	14 800 M^-1s^-1	8 360 M^-1s^-1
Val-Tyr(2,6Cl2Bzl)-His-Asp	< 10 M⁻¹ s⁻¹	100 M⁻¹ s⁻¹		3 400 M^-1s^-1	80 M⁻¹ s⁻¹	750 M⁻¹ s⁻¹	480 M⁻¹ s⁻¹
[Tle][Phg]HD	4 300 M^-1s^-1	320 M⁻¹ s⁻¹	490 M⁻¹ s⁻¹	6 710 M^-1s^-1	40 M⁻¹ s⁻¹	2 030 M^-1s^-1	9 870 M^-1s^-1
Pro-Met-His-Asp	13 200 M^-1s^-1	460 M⁻¹ s⁻¹	130 M⁻¹ s⁻¹	3 160 M^-1s^-1	100 M⁻¹ s⁻¹	3 570 M^-1s^-1	13 000 M^-1s^-1
Tyr-Gln-2Aoc-Asp		1 100 M^-1s^-1	2 860 M^-1s^-1	2 580 M^-1s^-1	190 M⁻¹ s⁻¹	4 970 M^-1s^-1	310 M⁻¹ s⁻¹
Asp-Glu-Val-Asp	280 M⁻¹ s⁻¹	260 M⁻¹ s⁻¹	180 M⁻¹ s⁻¹		85 000 M^-1s^-1	73 200 M^-1s^-1	280 M⁻¹ s⁻¹
